# Tests used:
# [1] = target: T1, Toll-like receptor 7 (Homo sapiens, UniProt Q9NYK1); assay: Agonist activity at recombinant human TLR7 transfected in HEK293 cells assessed as induction of SEAP production incubated overnight by SEAP reporter gene based assay; assay type: cell-based
# T1 sequence (Q9NYK1 whole entry): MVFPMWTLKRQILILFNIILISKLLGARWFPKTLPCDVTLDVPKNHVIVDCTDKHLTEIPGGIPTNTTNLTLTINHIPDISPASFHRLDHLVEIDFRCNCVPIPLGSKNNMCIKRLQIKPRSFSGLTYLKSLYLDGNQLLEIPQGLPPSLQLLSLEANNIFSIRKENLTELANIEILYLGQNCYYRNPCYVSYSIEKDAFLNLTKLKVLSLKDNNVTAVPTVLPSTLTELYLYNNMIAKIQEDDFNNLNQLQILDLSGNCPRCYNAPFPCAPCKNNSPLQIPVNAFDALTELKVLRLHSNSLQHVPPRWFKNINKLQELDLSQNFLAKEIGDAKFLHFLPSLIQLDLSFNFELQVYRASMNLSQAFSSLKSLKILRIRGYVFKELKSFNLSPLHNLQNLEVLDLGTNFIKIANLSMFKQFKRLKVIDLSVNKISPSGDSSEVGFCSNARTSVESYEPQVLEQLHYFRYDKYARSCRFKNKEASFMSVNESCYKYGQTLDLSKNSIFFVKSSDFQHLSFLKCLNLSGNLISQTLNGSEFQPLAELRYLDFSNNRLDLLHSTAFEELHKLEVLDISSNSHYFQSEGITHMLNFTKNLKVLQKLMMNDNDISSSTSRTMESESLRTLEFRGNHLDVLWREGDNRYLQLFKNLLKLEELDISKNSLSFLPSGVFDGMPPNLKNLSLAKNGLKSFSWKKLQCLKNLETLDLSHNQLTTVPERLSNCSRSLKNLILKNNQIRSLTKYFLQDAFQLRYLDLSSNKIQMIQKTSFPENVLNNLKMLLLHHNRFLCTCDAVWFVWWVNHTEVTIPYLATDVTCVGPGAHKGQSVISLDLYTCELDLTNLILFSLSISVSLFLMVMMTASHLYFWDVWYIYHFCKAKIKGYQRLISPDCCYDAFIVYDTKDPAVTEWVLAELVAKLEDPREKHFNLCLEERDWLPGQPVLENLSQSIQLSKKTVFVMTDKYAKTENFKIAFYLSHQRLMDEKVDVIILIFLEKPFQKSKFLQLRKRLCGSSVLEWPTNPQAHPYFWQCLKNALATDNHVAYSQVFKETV
# [2] = target: T2, Toll-like receptor 8 (Homo sapiens, UniProt Q9NR97); assay: Agonist activity at human TLR8 transfected in HEK293 cells assessed as induction of SEAP production incubated overnight; assay type: cell-based
# T2 sequence (Q9NR97 whole entry): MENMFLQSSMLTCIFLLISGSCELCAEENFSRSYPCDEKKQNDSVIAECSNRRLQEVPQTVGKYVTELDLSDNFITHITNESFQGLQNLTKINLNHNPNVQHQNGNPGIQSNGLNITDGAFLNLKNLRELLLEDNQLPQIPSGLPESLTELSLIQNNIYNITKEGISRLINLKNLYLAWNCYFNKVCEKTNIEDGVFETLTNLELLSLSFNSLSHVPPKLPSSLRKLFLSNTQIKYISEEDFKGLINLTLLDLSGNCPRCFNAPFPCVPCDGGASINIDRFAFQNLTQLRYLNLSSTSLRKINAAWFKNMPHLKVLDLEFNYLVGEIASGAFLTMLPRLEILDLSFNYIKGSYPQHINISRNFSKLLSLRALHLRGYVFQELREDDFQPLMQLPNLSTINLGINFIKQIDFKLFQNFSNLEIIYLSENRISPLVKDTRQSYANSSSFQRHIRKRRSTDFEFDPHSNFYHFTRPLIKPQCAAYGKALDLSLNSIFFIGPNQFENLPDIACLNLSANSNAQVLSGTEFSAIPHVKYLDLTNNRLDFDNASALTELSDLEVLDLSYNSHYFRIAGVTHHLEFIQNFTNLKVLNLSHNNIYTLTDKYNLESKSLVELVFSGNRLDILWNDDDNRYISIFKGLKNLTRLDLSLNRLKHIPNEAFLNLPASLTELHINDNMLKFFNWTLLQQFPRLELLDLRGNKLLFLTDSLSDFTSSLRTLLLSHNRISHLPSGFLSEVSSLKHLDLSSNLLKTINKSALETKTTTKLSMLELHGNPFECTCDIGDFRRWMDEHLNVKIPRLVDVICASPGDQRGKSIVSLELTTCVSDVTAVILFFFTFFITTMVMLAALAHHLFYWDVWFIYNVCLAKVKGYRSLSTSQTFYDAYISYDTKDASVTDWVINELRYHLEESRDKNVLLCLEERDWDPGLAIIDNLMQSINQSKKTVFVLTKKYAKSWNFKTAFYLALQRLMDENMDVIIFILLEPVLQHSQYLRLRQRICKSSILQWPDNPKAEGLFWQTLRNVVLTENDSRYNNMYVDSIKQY
# [3] = target: T1, Toll-like receptor 7; assay: Agonist activity at human TLR7 in HEK-Blue hTLR7 cells assessed as activation of NFkappaB by SEAP reporter gene based spectrophotometry assay; assay type: cell-based
# [4] = target: T2, Toll-like receptor 8; assay: Agonist activity at human TLR8 in HEK-Blue hTLR8 cells assessed as activation of NFkappaB by SEAP reporter gene based spectrophotometry assay; assay type: cell-based
# [5] = target: T1, Toll-like receptor 7; assay: (§1) Agonist activity at TLR7 (unknown origin)
# [6] = target: T2, Toll-like receptor 8; assay: (§2) Agonist activity at TLR8 (unknown origin)
# [7] = target: T2, Toll-like receptor 8; assay: Agonist activity at human TLR8 in HEK-Blue hTLR8 cells assessed as induction of SEAP production using nitrophenyl phosphate as substrate incubated for 20 hrs by microplate reader analysis; assay type: cell-based
# [8] = target: T1, Toll-like receptor 7; assay: Agonist activity at human TLR7 transfected in HEK293 cells assessed as induction of SEAP production incubated overnight by SEAP reporter gene based assay; assay type: cell-based
# [9] = target: T3, Toll-like receptor 8 (Homo sapiens) (UniProt Q9NR97); assay: as §2
# T3 sequence (whole entry): T2 sequence (Q9NR97 whole entry)
# [10] = target: T4, Toll-like receptor 7 (Homo sapiens) (UniProt Q9NYK1); assay: as §1; details: filed as agonist
# T4 sequence (whole entry): T1 sequence (Q9NYK1 whole entry)
# [11] = target: T4, Toll-like receptor 7 (Homo sapiens); assay: Agonist activity at human TLR7 transfected in HEK293 cells incubated for 6 hrs by luciferase based analysis; assay type: cell-based; details: filed as agonist
# [12] = target: T3, Toll-like receptor 8 (Homo sapiens); assay: Agonist activity at human TLR8 transfected in HEK293 cells incubated for 6 hrs by luciferase based analysis; assay type: cell-based; details: filed as agonist
# [13] = Induction of IFN production in C3H/HeJ mouse splenocytes incubated for 18 hrs; assay type: functional; details: Splenocyte, read-out: MEC
structure (smiles),measurement,setting,value
CCC[C@@H](CCO)Nc1nc(N)nc(C)c1Cc1ccc(CN(C)CC(N)=O)cc1OC,EC50,[1],55 nM
same,EC50,[2],> 10000 nM
CC(C)Cc1nc2c(N)nc3ccccc3c2s1,EC50,[3]; hek-blue htlr7,6960 nM
same,EC50,[4]; hek-blue htlr8,1550 nM
CCCCNc1nc(N)nnc1OCc1ccccn1,EC50,[5],170 nM
CCC[C@@H](CCO)Nc1nc(N)nc(C)c1Cc1ccc(CNC2CN(C)C2)cc1OC,EC50,[1],19.1 nM
same,EC50,[2],> 10000 nM
CCC[C@@H](CCO)Nc1nc(N)nc(C)c1Cc1ccc(CNC2CNC2)cc1OC,EC50,[1],19.5 nM
same,EC50,[2],> 10000 nM
CCCCNc1nc(N)nnc1OCCOC,EC50,[6],1000 nM
same,EC50,[5],4750 nM
CCCc1nc2c(N)nc3ccc(-n4cc([Si](C)(C)C)nn4)cc3c2s1,EC50,[4]; hek-blue htlr8,9840 nM
CCC[C@@H](CO)Nc1nc(N)nc(C)c1Cc1ccc(CN2CCN(C)CC2)cc1OC,EC50,[1],< 6.31 nM
same,EC50,[7],100 nM
CCC[C@@H](CO)Nc1nc(N)nc(C)c1Cc1ccc(CN2CCNCC2)cc1OC,EC50,[1],63.1 nM
same,EC50,[2],5250 nM
COCCc1nc2c(N)nc3ccccc3c2n1CCCCN(CCN(C)C)Cc1cccc(OCC(=O)OC(C)(C)C)c1,EC50,[8],56.4 nM
COc1ccc2cc1O/C=C\CCOc1nc(N)c3nc(O)n(c3n1)C2,MEC,[9],> 25 µM
same,MEC,[10],2 µM
CCCCNc1nc(N)nnc1OCCCN(C)C,EC50,[6],100 nM
same,EC50,[5],> 25000 nM
CC[C@H](C)Cc1nc2c(N)nc3ccccc3c2s1,EC50,[3]; hek-blue htlr7,4740 nM
same,EC50,[4]; hek-blue htlr8,2510 nM
CCCCNc1nc(N)nnc1OCc1ccccc1OC,EC50,[6],640 nM
CCCC[C@@H](CO)Nc1nc(N)nc2ccsc12,MEC,[11],0.5 µM
same,MEC,[12],0.03 µM
CC[C@H](C)c1nc2c(N)nc3ccccc3c2s1,EC50,[4]; hek-blue htlr8,2770 nM
CCCc1nc2c(NC(=O)CN=[N+]=[N-])nc3ccccc3c2s1,EC50,[3]; hek-blue htlr7,3530 nM
same,EC50,[4]; hek-blue htlr8,1200 nM
CCC[C@@H](CO)Nc1nc(N)nc(C)c1Cc1ccc(CN2CCCC2)cc1OC,EC50,[1],< 5.89 nM
same,EC50,[7],63.1 nM
Cc1nc2c(N)nc3ccccc3c2s1,EC50,[3]; hek-blue htlr7,10200 nM
CC(C)c1nc2c(N)nc3ccccc3c2s1,EC50,[3]; hek-blue htlr7,9670 nM
same,EC50,[4]; hek-blue htlr8,10800 nM
CCOC(=O)COc1ccc(CN(CCCn2c(CCOC)nc3c(N)nc4ccccc4c32)C(=O)CN2CCCC2)cc1,EC50,[8],150 nM
CCC[C@@H](CCO)Nc1nc(N)nc(C)c1Cc1ccc(CNCCO)cc1OC,EC50,[1],9.77 nM
same,EC50,[2],> 10000 nM
CCOC(=O)COc1ccc(CN(CCCn2c(CCOC)nc3c(N)nc4ccccc4c32)C(=O)CN(C)C)cc1,EC50,[8],172 nM
CCCCSc1nc(N)c2nc(O)n(Cc3ccccc3)c2n1,minimal effective concentration,[13],0.01 µM
CCCc1nc2c(N)nc3ccc(N)cc3c2s1,EC50,[4]; hek-blue htlr8,3880 nM
CCCc1nc2c(NC(=O)CCN=[N+]=[N-])nc3ccccc3c2s1,EC50,[4]; hek-blue htlr8,2230 nM
Nc1nc2ccccc2c2sc(CCCC(F)(F)F)nc12,EC50,[3]; hek-blue htlr7,2250 nM
same,EC50,[4]; hek-blue htlr8,6290 nM
CCCCOc1nc(N)c2[nH]c(C#N)c(Cc3ccc(CN4CCCC4)nc3)c2n1,EC50,[5],1 nM
CCCc1nc2c(NC=O)nc3ccccc3c2s1,EC50,[4],880 nM
CCCCc1nc2c(N)nc(NCc3ccc(OC)cc3)cc2n1Cc1ccccc1,EC50,[3],75 nM
CCCCOc1nc(N)c2[nH]c(=O)n(Cc3ccccc3)c2n1,minimal effective concentration,[13],0.001 µM
